Results taken from patent publication US5523314A, “Compounds useful as hypoglycemic agents and for treating Alzheimer's disease” (priority 1994, dated 1996).
Like-named read-outs stand apart in the source and are kept apart here.

Assays:
[1] = tested on: blood glucose level; assay: Hypoglycemic activity in obese diabetic Zucker rats (Table 3); assay type: in vivo, obese diabetic Zucker rat (Zucker Diabetic Fatty Rat); details: 167 mg/kg, oral
Description: Male Sprague Dawley rats (Charles River Laboratories) weighing 175-200 g were used in this test system. […] The desired dose level of each test formulation was administered to four rats by oral […] at the beginning of the experiment. Blood glucose levels were determined immediately before the first dose and at 3 and 5 hours thereafter by an enzymatic procedure employing glucose oxidase and peroxidase coupled with a chromogenic oxygen acceptor. A mean was taken of the 4 values obtained before the first dose and at the 3 and 5 hour intervals.
The procedure used in this test system is the same as that described for the normal fed rat test system, above. The format of Table 3 is the same as that used in Table 2.

[2] = tested on: plasma glucose concentration; assay: Long-term hypoglycemic activity, compound in diet, ZDF rats (Table 4); assay type: in vivo, 8 week old male Zucker Diabetic Fatty rat
Description: (§1) Finally, the long-term hypoglycemic activity of the compounds of the present invention was tested in yet another in vivo test system. This long-term test system entailed incorporating test compound into the test animal's diet at various concentrations (control animal's diet contained no test compound). Such diet was then fed to the test or control animals for either 14 or 21 days. Each test or control animal was then bled from the tail (200-400 μl sample of blood) at 0 (before diet started), 7, 14 and, if appropriate, 21 and 28 days after diet administration was started. Plasma samples were then obtained from each blood sample collected and the glucose concentration of such plasma samples was determined enzymatically.
(§2) Columns 4-8 provide the plasma glucose concentration at days 0, 7, 14 and, if appropriate, 21 and 28, respectively, for the animals tested. Glucose lowering was not associated with depressed diet consumption.

[3] = molecular target: T1, Human liver cathepsin D (Homo sapiens, UniProt P07339); assay: Cathepsin D inhibition, fluorometric assay (Tables 5 and 6); assay type: biochemical
T1 construct: purchased Athens Research and Technology, Athens, Ga; host or cells: human liver
T1 sequence (P07339 169-412 limits assumed): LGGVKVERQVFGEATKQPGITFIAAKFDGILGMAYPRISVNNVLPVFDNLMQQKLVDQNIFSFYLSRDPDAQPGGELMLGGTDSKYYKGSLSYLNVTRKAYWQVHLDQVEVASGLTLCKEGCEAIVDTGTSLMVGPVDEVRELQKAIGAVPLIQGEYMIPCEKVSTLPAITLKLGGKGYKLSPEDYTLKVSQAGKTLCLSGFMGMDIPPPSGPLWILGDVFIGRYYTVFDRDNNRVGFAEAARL
T1 sequence (P07339 65-161 limits assumed): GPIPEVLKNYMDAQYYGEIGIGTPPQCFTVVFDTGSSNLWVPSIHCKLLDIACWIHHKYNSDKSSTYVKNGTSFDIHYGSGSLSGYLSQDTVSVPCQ
Summary of the method: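 Human liver cathepsin D at 500 ng/mL in 200 mM NaOAc pH 4.5, 150 mM NaCl, incubated 30 minutes at 37° C. Reaction stopped with microsomal leucine aminopeptidase (pH 8.0), which over two hours at 37° C releases AMC from cleavage products for fluorometric reading; aminopeptidase inhibition checked with Leu-pNA.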

[4] = tested on: blood glucose level; assay: Hypoglycemic activity in normal fed rats (Table 2); assay type: in vivo, male Sprague Dawley rats; details: Rattus norvegicus, 167 mg/kg, oral
Summary of the method: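 Test formulations given by oral gavage to four normal fed rats at the chosen dose. Blood glucose measured just before dosing and at 3 and 5 h by glucose oxidase/peroxidase enzymatic method with chromogenic oxygen acceptor. Means of the 4 values taken at each time.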

[5] = tested on: plasma glucose concentration; assay: Long-term hypoglycemic activity, compound in diet, A^vy /a mice (Table 4); assay type: in vivo, viable yellow mouse; details: 0.1% in diet, Male A^vy /a (Harlan)
Description: as §1, §2

[6] = tested on: blood glucose level; assay: Hypoglycemic activity in obese diabetic mice (Table 1); assay type: in vivo, male viable yellow obese-diabetic mice; details: for response vs control in vivo at 25 mg/kg / response vs control in vivo at 50 mg/kg: Mus musculus, ip, intraperitoneal
Summary of the method: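 Male viable yellow obese-diabetic mice, six per group, dosed intraperitoneally once with compound in saline containing 2% Emulphor. Blood glucose measured by glucose oxidase before dosing and at 2 and 4 h. Values are the 2 h and 4 h glucose as % of pre-dose level.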

[7] = 2 h, 2 hrs, read-out: Percent of Initial Blood Glucose Level After 2 hrs.
[8] = 4 h, 4 hrs, read-out: Percent of Initial Blood Glucose Level After 4 hrs.

CCCCCOc1ccc(C=C2SC(=S)NC2=O)cc1OC [Example 45, 5-[(3-methoxy-4-pentoxyphenyl)methylene]-2-thioxo-4-thiazolidinone]
Percent of Initial Blood Glucose Level After 3 hrs. ([1]; 3 hrs): 30% | Percent of Initial Blood Glucose Level After 5 hrs. ([1]; 5 hrs): 20% | Plasma Glucose Concentration ([2]; 0.025% in diet, day 0 (before diet started)): 467 mg/dL | Plasma Glucose Concentration ([2]; 0.025% in diet, day 7): 451 mg/dL | Plasma Glucose Concentration ([2]; 0.025% in diet, day 14): 452 mg/dL | Plasma Glucose Concentration ([2]; 0.025% in diet, day 21): 517 mg/dL | Plasma Glucose Concentration ([2]; 0.1% in diet, day 21): 285 mg/dL | inhibition at 4.15 µg/mL (stock) ([3]; Compound Stock Concentration 4.15 μg/ml): 49.5% | inhibition at 8.3 µg/mL (stock) ([3]; Compound Stock Concentration 8.3 μg/ml): 95% | response vs control in vivo at 167 mg/kg ([4]; 3 hrs, read-out: Percent of Initial Blood Glucose Level After 3 hrs.): 61% | response vs control in vivo at 167 mg/kg ([4]; 5 hrs, read-out: Percent of Initial Blood Glucose Level After 5 hrs.): 63% | Plasma Glucose Concentration ([5]; day 0 (before diet started)): 438 mg/dL | Plasma Glucose Concentration ([5]; day 7): 338 mg/dL | Plasma Glucose Concentration ([5]; day 14): 315 mg/dL | Plasma Glucose Concentration ([5]; day 21): 287 mg/dL | Plasma Glucose Concentration ([5]; day 28): 295 mg/dL | response vs control in vivo at 25 mg/kg [6, 7]: 93 ± 4% | response vs control in vivo at 50 mg/kg [6, 7]: 76 ± 7% | response vs control in vivo at 25 mg/kg [6, 8]: 87 ± 5% | response vs control in vivo at 50 mg/kg [6, 8]: 57 ± 3% | ability to lower blood glucose levels in mammals ([6]; compared to structurally similar compounds known in the art, in words): surprising ability to lower blood glucose levels in mammals
